This is an account of results in PMC4279406, “Simultaneous targeting of PI3Kδ and a PI3Kδ-dependent MEK1/2-Erk1/2 pathway for therapy in pediatric B-cell acute lymphoblastic leukemia” (Oncotarget, 2014).

One assay concerns Rh30-Myr-p110β cells. Description: Akt phosphorylation in isogenic Rh30-Myr-p110 cells (Western blot). Type of assay: cell-based. Conditions: Homo sapiens, serum-free 12 h, compound 1 h, band intensity, mean of three experiments. From the text:
To assess the selectivity of X-370 in the context of an isogenic cellular background, we generated a panel of Rh30 human rhabdomyosarcoma cell lines each of which stably expresses a single myristoylated (Myr)-epitope tagged p110 human class I PI3K catalytic subunit, termed as Rh30-Myr-p110α, Rh30-Myr-p110β, Rh30-Myr-p110γ or Rh30-Myr-p110δ. In these cells, endogenous PI3K is not activated under serum-free culture conditions, whereas the ectopically expressed p110 isoforms are membrane-anchored and constitutively active due to myristoylation at N-terminal. Utilizing this cell panel, isoform-specific PI3K activity can be determined for any given inhibitor[25]. These cells were treated with X-370 and phosphorylated Akt was detected as the readout of PI3K activity. X-370 inhibited phosphorylation of Akt at both Thr308 and Ser473 in a dose-dependent manner in four tested cell lines (Figure 2A). […] Similar property was also observed in CAL-101 (Figure S2).
Cell lysates were probed with indicated antibodies. The IC50 values were calculated based on relative band intensity measured with ImageQuant™ TL (GE Healthcare Life Sciences, Piscataway, NJ) (B). Data shown are mean values from three independent experiments. (C, D, E, F) X-370 blocked stimuli-triggered PI3Kδ activation. MEF cells and THP-1 were starved in serum-free medium for 12 h or 4 h respectively and X-370 were added for an additional 1 h treatment following stimulation of IGF-1 at 100 ng/ml for MEF cells (C), LPA at 10 μM for MEF cells (D), MCP-1 at 100ng/ml for THP-1 (E) and M-CSF at 50 ng/ml for THP-1 (F). Similar results were derived from 3 independent experiments. TEXT PRINTED IN THE PICTURE: (B) X-370: IC50 (μM) in Rh30-Myr-p110s, Akt pT308, PI3Kα: 0.68; IC50 (μM) in Rh30-Myr-p110s, Akt pT308, PI3Kβ: 0.4; IC50 (μM) in Rh30-Myr-p110s, Akt pT308, PI3Kγ: 0.46; IC50 (μM) in Rh30-Myr-p110s, Akt pT308, PI3Kδ: 0.032; IC50 (μM) in Rh30-Myr-p110s, Akt pS473, PI3Kα: 0.53; IC50 (μM) in Rh30-Myr-p110s, Akt pS473, PI3Kβ: 0.29; IC50 (μM) in Rh30-Myr-p110s, Akt pS473, PI3Kγ: 0.23; IC50 (μM) in Rh30-Myr-p110s, Akt pS473, PI3Kδ: 0.02 DOUBTS OF THE COPYIST ABOUT THIS PICTURE: Panel B prints no substance label in the table itself; the label X-370 is taken from the other panels of the same picture, where it is the only substance printed. […]
Cells were treated as indicated conditions and then subjected to lysate to perform standard Western blot as described previously1. Briefly, whole-cell lysates and SDS-loading buffer diluted cell fractions were analyzed on SDS-PAGE gels. Transfer to nitrocellulose membranes, nonfat milk blocking, probing with indicated primary antibodies and the corresponding HRP-conjugated second antibodies.
Chemiluminescence were performed and captured using ImageQuant LAS 4000 (GE healthcare Life Sciences, Piscataway, NJ, USA) and band intensity was measure both with ImageQuant™ TL (GE Healthcare Life Sciences) 2. […]
(also on this page, place not known: PI3Kδ -dependent MEK1/2 - B -cell previously 1. whole -cell SDS -loading SDS -PAGE HRP -conjugated (G E A B Val828 Trp760 Thr750 Met752 Tyr813 affinity pocket specificity pocket hinge Glu826 CAL-101 X-370) […]
(1 picture or pasted object on this page, not shown here)

Assay [1] relates to PI3Kγ (MCP-1-stimulated THP-1 monocytes). Description: MCP-1-stimulated Akt phosphorylation in THP-1 cells. The class given is cell-based. Conditions: MCP-1 100 ng/ml. Here is the method:
In fibroblasts, signals from the insulin-like growth factor 1 (IGF-1) receptor are mediated by PI3Kα, while lysophosphatidic acid (LPA) stimulates G-protein coupled receptor (GPCR) signals via PI3Kβ[26]. After being pre-incubated with X-370, murine embryonic fibroblasts cultured in serum-free medium were stimulated with IGF-1 or LPA. […] Either PI3Kδ or PI3Kγ can be activated in THP-1 monocytes dependent on the stimulating ligand, among which macrophage colony stimulating factor (M-CSF/CSF-1) activates RTK-coupled PI3Kδ, while monocyte chemoattractant protein-1 (MCP-1) activates PI3Kγ [24]. Accordingly, THP-1 cells cultured in serum-free medium were stimulated with MCP-1 or M-CSF in the presence of X-370 and phosphorylated Akt was measured.
Cell lysates were probed with indicated antibodies. The IC50 values were calculated based on relative band intensity measured with ImageQuant™ TL (GE Healthcare Life Sciences, Piscataway, NJ) (B). Data shown are mean values from three independent experiments. (C, D, E, F) X-370 blocked stimuli-triggered PI3Kδ activation. MEF cells and THP-1 were starved in serum-free medium for 12 h or 4 h respectively and X-370 were added for an additional 1 h treatment following stimulation of IGF-1 at 100 ng/ml for MEF cells (C), LPA at 10 μM for MEF cells (D), MCP-1 at 100ng/ml for THP-1 (E) and M-CSF at 50 ng/ml for THP-1 (F). […]

Like-named read-outs stand apart in the source and are kept apart here.

As to `O=C(N1CCCC1)N1CCC(n2cnc3c(-n4c(C(F)F)nc5ccccc54)nc(N4CCOCC4)nc32)CC1` [X-370], the IC50 (in general, the concentration at which inhibition is half-maximal) in the assay with Rh30-Myr-p110β cells (read-out: IC50 (μM) in Rh30-Myr-p110s, Akt pS473, PI3Kβ) amounted to 0.29 µM; with Rh30-Myr-p110β cells (read-out: IC50 (μM) in Rh30-Myr-p110s, Akt pT308, PI3Kβ), 0.4 µM. The “MCP-1-stimulated Akt phosphorylation” value in assay [1] was “much less activity”.
